Experimental data published in the OligoGym collection.
HELM strings list units from the 5' end as sugar, base in round brackets, then linkage (d deoxyribose, r ribose, m 2'-O-methyl, p phosphodiester). Strings are as the collection lists them; they lack the last nucleoside at the 3' end of the tested compound. [moe] = 2'-O-(2-methoxyethyl) (MOE); [sp] = phosphorothioate linkage; [m5C] = 5-methylcytosine

What follows are substances tested against ATXN3 (assay: mouse, dose not given). Conditions: ASO.

Row | Substance | 3 h FOB score [score 0-7]
1 | RNA1{[moe](T)[sp].[moe](G)p.[moe]([m5C])p.[moe](T)p.[moe](T)[sp].d(T)[sp].d(T)[sp].d([m5C])[sp].d(A)[sp].d(T)[sp].d(A)[sp].d([m5C])[sp].d([m5C])[sp].d(A)[sp].d(G)[sp].[moe](G)p.[moe](T)p.[moe]([m5C])[sp].[moe](T)}$$$$ (last 3' nucleoside missing) | 0.25
2 | RNA1{[moe](A)[sp].[moe](T)p.[moe](G)p.[moe](T)p.[moe](T)p.[moe]([m5C])p.d(A)[sp].d(T)[sp].d(A)[sp].d(T)[sp].d([m5C])[sp].d([m5C])[sp].d(T)[sp].d(T)[sp].d(T)[sp].d(A)[sp].[moe](A)p.[moe]([m5C])[sp].[moe]([m5C])}$$$$ (last 3' nucleoside missing) | 0
3 | RNA1{[moe](A)[sp].[moe](G)p.[moe]([m5C])p.[moe]([m5C])p.[moe](A)p.d(A)[sp].d(T)[sp].d(A)[sp].d(T)[sp].d(T)[sp].d(T)[sp].d(A)[sp].d(T)[sp].d(A)[sp].d(G)[sp].[moe](G)p.[moe](T)p.[moe](G)[sp].[moe]([m5C])}$$$$ (last 3' nucleoside missing) | 1
4 | RNA1{[moe](G)[sp].[moe](T)p.[moe](T)[sp].[moe](A)[sp].[moe](A)[sp].d(T)[sp].d(A)[sp].d([m5C])[sp].d(T)[sp].d(T)[sp].d(T)[sp].d(T)[sp].d(T)[sp].d([m5C])[sp].d([m5C])[sp].[moe](A)[sp].[moe](G)p.[moe]([m5C])[sp].[moe]([m5C])}$$$$ (last 3' nucleoside missing) | 1
5 | RNA1{[moe](A)[sp].[moe](A)p.[moe](T)p.[moe](T)p.[moe]([m5C])[sp].d(T)[sp].d(T)[sp].d(G)[sp].d([m5C])[sp].d(T)[sp].d(T)[sp].d([m5C])[sp].d(A)[sp].d(A)[sp].d([m5C])[sp].[moe]([m5C])p.[moe](A)p.[moe](T)[sp].[moe]([m5C])}$$$$ (last 3' nucleoside missing) | 1.25
6 | RNA1{[moe](A)[sp].[moe](G)p.[moe](T)p.[moe](G)p.[moe]([m5C])[sp].d(T)[sp].d(U)[sp].d(T)[sp].d(T)[sp].d([m5C])[sp].d(A)[sp].d(T)[sp].d(A)[sp].d([m5C])[sp].d([m5C])[sp].[moe](A)p.[moe](G)p.[moe](G)[sp].[moe](T)}$$$$ (last 3' nucleoside missing) | 0.75
7 | RNA1{[moe](G)[sp].[moe](G)p.[moe]([m5C])p.[moe](A)p.[moe]([m5C])p.[moe](A)p.d(T)[sp].d(T)[sp].d(T)[sp].d(T)[sp].d(T)[sp].d(T)[sp].d(A)[sp].d(T)[sp].d(A)[sp].d(G)[sp].[moe](A)p.[moe](G)[sp].[moe](T)}$$$$ (last 3' nucleoside missing) | 1
8 | RNA1{[moe]([m5C])[sp].[moe]([m5C])p.[moe](A)p.[moe](A)p.[moe](T)[sp].d(A)[sp].d(T)[sp].d(T)[sp].d(T)[sp].d(A)[sp].d(T)[sp].d(A)[sp].d(G)[sp].d(G)[sp].d(T)[sp].[moe](G)p.[moe]([m5C])p.[moe](T)[sp].[moe](G)}$$$$ (last 3' nucleoside missing) | 3.5
9 | RNA1{[moe]([m5C])[sp].[moe](A)p.[moe](A)p.[moe](T)p.[moe](A)[sp].d(T)[sp].d(T)[sp].d(T)[sp].d(A)[sp].d(T)[sp].d(A)[sp].d(G)[sp].d(G)[sp].d(T)[sp].d(G)[sp].[moe]([m5C])p.[moe](T)p.[moe](G)[sp].[moe]([m5C])}$$$$ (last 3' nucleoside missing) | 4.5
10 | RNA1{[moe](T)[sp].[moe](G)p.[moe]([m5C])p.[moe](T)p.[moe](T)p.d(T)[sp].d(T)[sp].d([m5C])[sp].d(A)[sp].d(T)[sp].d(A)[sp].d([m5C])[sp].d([m5C])[sp].d(A)[sp].d(G)[sp].[moe](G)p.[moe](T)p.[moe]([m5C])[sp].[moe](T)}$$$$ (last 3' nucleoside missing) | 1.25
11 | RNA1{[moe](A)[sp].[moe](G)p.[moe](T)p.[moe](G)p.[moe]([m5C])p.[moe](T)p.d(T)[sp].d(T)[sp].d(T)[sp].d([m5C])[sp].d(A)[sp].d(T)[sp].d(A)[sp].d([m5C])[sp].d([m5C])[sp].d(A)[sp].[moe](G)p.[moe](G)[sp].[moe](T)}$$$$ (last 3' nucleoside missing) | 1
12 | RNA1{[moe](G)[sp].[moe]([m5C])p.[moe]([m5C])p.[moe](A)p.[moe](A)[sp].d(T)[sp].d(A)[sp].d(T)[sp].d(T)[sp].d(T)[sp].d(A)[sp].d(T)[sp].d(A)[sp].d(G)[sp].d(G)[sp].[moe](T)p.[moe](G)p.[moe]([m5C])[sp].[moe](T)}$$$$ (last 3' nucleoside missing) | 3
13 | RNA1{[moe](A)[sp].[moe]([m5C])p.[moe](T)p.[moe](A)p.[moe]([m5C])[sp].d([m5C])[sp].d(T)[sp].d(T)[sp].d(G)[sp].d([m5C])[sp].d(A)[sp].d(T)[sp].d(A)[sp].d([m5C])[sp].d(T)[sp].[moe](T)p.[moe](A)p.[moe](G)[sp].[moe]([m5C])}$$$$ (last 3' nucleoside missing) | 1.12
14 | RNA1{[moe](G)[sp].[moe](T)p.[moe](T)p.[moe]([m5C])p.[moe]([m5C])p.d(A)[sp].d(G)[sp].d(A)[sp].d(T)[sp].d([m5C])[sp].d(A)[sp].d([m5C])[sp].d([m5C])[sp].d(A)[sp].d(T)[sp].[moe]([m5C])p.[moe](T)p.[moe](T)[sp].[moe](T)}$$$$ (last 3' nucleoside missing) | 3.5
15 | RNA1{[moe](G)[sp].[moe]([m5C])p.[moe](A)p.[moe](T)p.[moe](A)[sp].d(T)[sp].d(T)[sp].d(G)[sp].d(G)[sp].d(T)[sp].d(T)[sp].d(T)[sp].d(T)[sp].d([m5C])[sp].d(T)[sp].[moe]([m5C])p.[moe](A)p.[moe](T)p.[moe](T)}$$$$ (last 3' nucleoside missing) | 3
16 | RNA1{[moe](A)[sp].[moe](G)[sp].[moe]([m5C])p.[moe]([m5C])p.[moe](A)[sp].d(A)[sp].d(T)[sp].d(A)[sp].d(T)[sp].d(T)[sp].d(T)[sp].d(A)[sp].d(T)[sp].d(A)[sp].d(G)[sp].[moe](G)p.[moe](T)p.[moe](G)[sp].[moe]([m5C])}$$$$ (last 3' nucleoside missing) | 1
17 | RNA1{[moe]([m5C])[sp].[moe](T)p.[moe](G)p.[moe]([m5C])p.[moe](A)[sp].d([m5C])[sp].d(A)[sp].d([m5C])[sp].d(T)[sp].d(T)[sp].d(T)[sp].d([m5C])[sp].d([m5C])[sp].d(T)[sp].d([m5C])[sp].[moe]([m5C])p.[moe](T)p.[moe]([m5C])[sp].[moe](A)}$$$$ (last 3' nucleoside missing) | 0
18 | RNA1{[moe](G)[sp].[moe]([m5C])p.[moe](A)p.[moe]([m5C])p.[moe]([m5C])p.[moe](A)p.d(T)[sp].d(A)[sp].d(T)[sp].d(A)[sp].d(T)[sp].d(A)[sp].d(T)[sp].d([m5C])[sp].d(T)[sp].d([m5C])[sp].[moe](A)p.[moe](G)[sp].[moe](A)}$$$$ (last 3' nucleoside missing) | 0.25
